Tests used:
[1] = target: T1, Alpha-1B adrenergic receptor (Rattus norvegicus, UniProt P15823); assay: DRUGMATRIX: Alpha-1B adrenergic receptor radioligand binding (ligand: prazosin); assay type: cell membranes, Wistar, Liver, Membrane; details: Not Active = under 50% inhibition at 10 µM
T1 sequence (P15823 whole entry): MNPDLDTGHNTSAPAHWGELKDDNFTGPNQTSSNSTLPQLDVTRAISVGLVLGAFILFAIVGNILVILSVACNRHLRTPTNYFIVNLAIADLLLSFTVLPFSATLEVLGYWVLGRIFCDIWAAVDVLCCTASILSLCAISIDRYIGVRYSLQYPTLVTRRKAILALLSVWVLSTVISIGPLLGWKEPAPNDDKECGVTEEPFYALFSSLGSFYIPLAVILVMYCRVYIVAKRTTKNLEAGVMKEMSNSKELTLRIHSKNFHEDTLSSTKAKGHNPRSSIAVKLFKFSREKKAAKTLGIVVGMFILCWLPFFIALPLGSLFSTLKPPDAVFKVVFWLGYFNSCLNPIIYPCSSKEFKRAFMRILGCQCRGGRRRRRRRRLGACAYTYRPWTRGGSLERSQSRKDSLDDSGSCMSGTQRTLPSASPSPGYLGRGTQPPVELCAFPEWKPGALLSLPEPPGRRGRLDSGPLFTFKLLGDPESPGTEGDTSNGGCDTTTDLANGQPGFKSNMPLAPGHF

[2] = target: T2, Alpha-2A adrenergic receptor (Homo sapiens, UniProt P08913); assay type: cell membranes, Sf9, Membrane; details: sf9; also: in other assays of this panel Not Active means under 50% inhibition at 10 µM
T2 sequence (P08913 whole entry): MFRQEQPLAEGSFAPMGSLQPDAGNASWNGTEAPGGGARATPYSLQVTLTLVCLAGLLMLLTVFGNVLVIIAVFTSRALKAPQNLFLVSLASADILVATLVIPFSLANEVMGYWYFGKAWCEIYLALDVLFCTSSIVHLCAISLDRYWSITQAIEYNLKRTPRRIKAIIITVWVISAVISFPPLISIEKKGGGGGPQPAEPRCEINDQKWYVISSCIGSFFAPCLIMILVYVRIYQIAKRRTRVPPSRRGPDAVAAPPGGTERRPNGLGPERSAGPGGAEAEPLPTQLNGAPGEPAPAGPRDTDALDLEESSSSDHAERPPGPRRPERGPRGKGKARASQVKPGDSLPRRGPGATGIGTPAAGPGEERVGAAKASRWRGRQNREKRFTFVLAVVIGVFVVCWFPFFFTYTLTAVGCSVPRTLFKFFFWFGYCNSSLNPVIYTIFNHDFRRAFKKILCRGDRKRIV

Glycine receptor = Glycine receptor (Rattus norvegicus, UniProt P22771+P24524+P07727+P20781); assay type: cell membranes, Wistar, Spinal cord, Membrane; also: in other assays of this panel Not Active means under 50% inhibition at 10 µM
D(1A) dopamine receptor = D(1A) dopamine receptor (Homo sapiens, UniProt P21728); assay: DRUGMATRIX: Dopamine D1 radioligand binding (ligand: [3H] SCH-23390); assay type: cell membranes, CHO, Membrane; details: Not Active = under 50% inhibition at 10 µM
D(1A) dopamine receptor, sequence (P21728 whole entry): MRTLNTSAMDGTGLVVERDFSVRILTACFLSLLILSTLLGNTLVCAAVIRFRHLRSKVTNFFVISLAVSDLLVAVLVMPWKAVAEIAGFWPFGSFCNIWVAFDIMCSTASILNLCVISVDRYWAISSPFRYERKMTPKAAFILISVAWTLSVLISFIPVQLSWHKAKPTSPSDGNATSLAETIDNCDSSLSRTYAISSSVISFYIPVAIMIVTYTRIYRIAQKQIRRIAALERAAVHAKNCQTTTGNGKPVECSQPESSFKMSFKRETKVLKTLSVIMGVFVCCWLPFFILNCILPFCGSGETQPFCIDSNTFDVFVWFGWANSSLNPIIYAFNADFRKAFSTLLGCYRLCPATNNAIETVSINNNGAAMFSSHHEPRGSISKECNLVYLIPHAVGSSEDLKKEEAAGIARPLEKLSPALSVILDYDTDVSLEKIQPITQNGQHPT

[3] = target: T3, 3-hydroxy-3-methylglutaryl-coenzyme A reductase (Homo sapiens, UniProt P04035); parameters: species or system Escherichia coli;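 also: enzyme inhibition assay of HMG-CoA reductase using radiolabeled [14C]HMG-CoA as substrate; in other assays of this panel Not Active means under 50% inhibition at 10 µM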
T3 sequence (P04035 whole entry): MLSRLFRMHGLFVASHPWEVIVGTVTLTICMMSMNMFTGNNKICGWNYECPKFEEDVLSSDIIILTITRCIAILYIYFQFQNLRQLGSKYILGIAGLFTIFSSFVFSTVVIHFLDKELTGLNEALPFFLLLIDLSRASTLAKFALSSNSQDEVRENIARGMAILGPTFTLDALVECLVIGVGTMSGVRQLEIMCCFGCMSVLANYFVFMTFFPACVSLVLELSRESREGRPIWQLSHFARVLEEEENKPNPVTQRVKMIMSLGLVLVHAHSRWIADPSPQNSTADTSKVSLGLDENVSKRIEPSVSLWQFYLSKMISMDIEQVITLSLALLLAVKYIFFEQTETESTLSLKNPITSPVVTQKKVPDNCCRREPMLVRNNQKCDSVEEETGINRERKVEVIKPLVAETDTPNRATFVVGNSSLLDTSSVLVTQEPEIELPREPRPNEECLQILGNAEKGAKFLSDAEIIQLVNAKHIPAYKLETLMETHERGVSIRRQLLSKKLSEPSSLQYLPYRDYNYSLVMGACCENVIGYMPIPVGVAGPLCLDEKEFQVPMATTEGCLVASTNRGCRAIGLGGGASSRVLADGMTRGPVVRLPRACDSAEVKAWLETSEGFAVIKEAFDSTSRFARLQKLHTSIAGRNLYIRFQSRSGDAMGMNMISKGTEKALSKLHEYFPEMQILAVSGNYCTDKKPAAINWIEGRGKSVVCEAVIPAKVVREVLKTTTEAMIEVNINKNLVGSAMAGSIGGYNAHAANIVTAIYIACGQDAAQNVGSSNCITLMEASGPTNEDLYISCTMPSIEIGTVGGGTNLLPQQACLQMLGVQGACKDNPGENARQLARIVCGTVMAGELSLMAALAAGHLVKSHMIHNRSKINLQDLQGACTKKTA

[4] = target: Voltage-gated inwardly rectifying potassium channel KCNH2 (Homo sapiens, UniProt Q12809); details: hek293; also: in other assays of this panel Not Active means under 50% inhibition at 10 µM
Voltage-gated inwardly rectifying potassium channel KCNH2, sequence (Q12809 whole entry): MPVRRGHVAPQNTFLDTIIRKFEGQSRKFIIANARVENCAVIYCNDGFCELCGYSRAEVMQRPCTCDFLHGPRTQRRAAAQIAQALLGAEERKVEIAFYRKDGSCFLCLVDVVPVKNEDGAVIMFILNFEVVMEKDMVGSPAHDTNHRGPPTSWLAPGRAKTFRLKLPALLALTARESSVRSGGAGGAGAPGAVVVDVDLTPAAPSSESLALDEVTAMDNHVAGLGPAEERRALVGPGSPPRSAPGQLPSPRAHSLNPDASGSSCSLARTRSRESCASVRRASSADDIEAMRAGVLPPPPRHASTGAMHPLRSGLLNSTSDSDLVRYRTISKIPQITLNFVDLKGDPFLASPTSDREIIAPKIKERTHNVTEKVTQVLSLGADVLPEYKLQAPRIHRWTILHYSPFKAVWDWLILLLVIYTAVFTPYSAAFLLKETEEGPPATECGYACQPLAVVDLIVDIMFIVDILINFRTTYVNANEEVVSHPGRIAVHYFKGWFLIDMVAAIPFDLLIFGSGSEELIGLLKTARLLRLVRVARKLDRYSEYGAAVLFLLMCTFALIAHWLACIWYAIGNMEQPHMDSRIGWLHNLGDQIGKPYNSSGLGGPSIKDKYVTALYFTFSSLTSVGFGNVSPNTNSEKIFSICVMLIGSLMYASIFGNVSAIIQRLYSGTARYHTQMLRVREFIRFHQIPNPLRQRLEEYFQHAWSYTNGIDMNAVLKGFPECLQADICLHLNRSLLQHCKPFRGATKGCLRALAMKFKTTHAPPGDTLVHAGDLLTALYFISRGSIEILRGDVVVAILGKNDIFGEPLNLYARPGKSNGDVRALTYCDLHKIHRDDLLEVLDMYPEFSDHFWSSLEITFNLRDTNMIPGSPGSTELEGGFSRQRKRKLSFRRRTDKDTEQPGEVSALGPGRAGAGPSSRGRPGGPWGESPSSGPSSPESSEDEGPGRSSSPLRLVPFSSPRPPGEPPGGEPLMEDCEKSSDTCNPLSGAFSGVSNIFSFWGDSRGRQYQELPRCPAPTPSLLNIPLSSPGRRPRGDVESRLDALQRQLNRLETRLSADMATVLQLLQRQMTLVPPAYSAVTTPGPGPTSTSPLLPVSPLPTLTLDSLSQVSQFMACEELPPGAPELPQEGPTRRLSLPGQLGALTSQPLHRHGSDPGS

[5] = target: cGMP-specific 3',5'-cyclic phosphodiesterase (Homo sapiens, UniProt O76074); assay: DRUGMATRIX: Phosphodiesterase PDE5 enzyme inhibition (substrate: [3H]cGMP + cGMP); assay type: tissue-based, Platelet; details: Not Active = under 50% inhibition at 10 µM
Cytochrome P450 2E1 = Cytochrome P450 2E1 (Homo sapiens, UniProt P05181); details: bti-tn-5b1-4; also: in other assays of this panel Not Active means under 50% inhibition at 10 µM
Cytochrome P450 2E1, sequence (P05181 whole entry): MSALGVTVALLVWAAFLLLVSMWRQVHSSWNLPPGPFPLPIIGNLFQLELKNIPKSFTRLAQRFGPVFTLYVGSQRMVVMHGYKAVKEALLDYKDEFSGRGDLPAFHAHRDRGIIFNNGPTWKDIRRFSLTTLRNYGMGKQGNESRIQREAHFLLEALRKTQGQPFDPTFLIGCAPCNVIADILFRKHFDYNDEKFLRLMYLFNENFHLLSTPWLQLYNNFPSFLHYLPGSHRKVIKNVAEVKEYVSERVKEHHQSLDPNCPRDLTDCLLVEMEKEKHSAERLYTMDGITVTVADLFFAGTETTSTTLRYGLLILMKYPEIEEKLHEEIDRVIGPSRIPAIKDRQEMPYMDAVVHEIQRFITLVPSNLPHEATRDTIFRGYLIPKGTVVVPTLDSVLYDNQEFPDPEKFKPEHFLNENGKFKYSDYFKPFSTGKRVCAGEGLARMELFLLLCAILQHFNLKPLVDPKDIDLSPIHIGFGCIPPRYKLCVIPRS

[6] = target: Protein kinase C alpha type (Homo sapiens, UniProt P17252); assay type: cell-based; details: sf9
Cytochrome P450 1A2 = target: T4, Cytochrome P450 1A2 (Homo sapiens, UniProt P05177); details: bti-tn-5b1-4; also: in other assays of this panel Not Active means under 50% inhibition at 10 µM
T4 sequence (P05177 whole entry): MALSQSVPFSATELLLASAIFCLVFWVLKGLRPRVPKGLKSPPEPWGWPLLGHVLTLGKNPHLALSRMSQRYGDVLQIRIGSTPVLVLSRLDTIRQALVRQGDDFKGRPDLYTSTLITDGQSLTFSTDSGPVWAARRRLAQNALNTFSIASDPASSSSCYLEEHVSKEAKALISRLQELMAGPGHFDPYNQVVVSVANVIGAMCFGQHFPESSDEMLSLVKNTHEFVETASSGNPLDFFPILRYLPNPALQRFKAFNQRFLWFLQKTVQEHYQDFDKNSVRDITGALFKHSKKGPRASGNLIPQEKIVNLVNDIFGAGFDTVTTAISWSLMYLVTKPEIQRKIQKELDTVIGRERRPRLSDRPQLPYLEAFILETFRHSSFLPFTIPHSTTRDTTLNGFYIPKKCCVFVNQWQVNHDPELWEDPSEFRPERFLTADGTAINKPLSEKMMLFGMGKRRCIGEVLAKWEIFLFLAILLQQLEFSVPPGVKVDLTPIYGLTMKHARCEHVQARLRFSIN

SMILES: O=c1cc(-c2ccccc2)oc2c1ccc1ccccc12 [ALPHA-NAPHTHOFLAVONE]
- IC50 [1]: Not Active
- IC50 [2]: Not Active
- IC50 (Glycine receptor): Not Active
- IC50 (D(1A) dopamine receptor; cho): Not Active
- IC50 [3]: Not Active
- IC50 [4]: Not Active
- Ki [4]: Not Active
- IC50 ([5]; read-out: IC50): 2300 nM
- IC50 (Cytochrome P450 2E1): Not Active
- Ki (Cytochrome P450 2E1): Not Active
- IC50 [6]: Not Active

SMILES: O=C1OCCN1/N=C/c1ccc([N+](=O)[O-])o1 [FURAZOLIDONE]
- IC50 [1]: Not Active
- IC50 [2]: Not Active
- IC50 (Glycine receptor): Not Active
- IC50 (D(1A) dopamine receptor; cho): Not Active
- IC50 [3]: Not Active
- IC50 ([5]; platelet): Not Active
- IC50 [6]: Not Active

SMILES: NS(=O)(=O)c1cc2c(cc1Cl)NCNS2(=O)=O [HYDROCHLOROTHIAZIDE]
- IC50 [1]: Not Active
- IC50 [2]: Not Active
- IC50 (Glycine receptor): Not Active
- IC50 (D(1A) dopamine receptor; cho): Not Active
- IC50 [3]: Not Active
- IC50 [4]: Not Active
- Ki [4]: Not Active
- IC50 ([5]; platelet): Not Active
- IC50 (Cytochrome P450 2E1): Not Active
- Ki (Cytochrome P450 2E1): Not Active
- IC50 [6]: Not Active

SMILES: CNCCC=C1c2ccccc2CCc2ccccc21 [NORTRIPTYLINE]
- IC50 ([1]; read-out: IC50): 207 nM
- Ki ([1]; read-out: Ki): 114 nM
- IC50 (Glycine receptor): Not Active
- IC50 (D(1A) dopamine receptor; read-out: IC50): 539 nM
- Ki (D(1A) dopamine receptor; read-out: Ki): 269 nM
- IC50 [3]: Not Active
- IC50 (Cytochrome P450 1A2): Not Active
- Ki (Cytochrome P450 1A2): Not Active
- IC50 [4]: Not Active
- Ki [4]: Not Active
- IC50 ([5]; platelet): Not Active
- IC50 (Cytochrome P450 2E1): Not Active
- Ki (Cytochrome P450 2E1): Not Active
- IC50 [6]: Not Active

SMILES: c1ccc2c(c1)cc1ccc3cccc4ccc2c1c34
- IC50 [1]: Not Active
- IC50 [2]: Not Active
- IC50 (Glycine receptor): Not Active
- IC50 (D(1A) dopamine receptor; cho): Not Active
- IC50 [3]: Not Active
- IC50 [4]: Not Active
- Ki [4]: Not Active
- IC50 ([5]; platelet): Not Active
- IC50 (Cytochrome P450 2E1): Not Active
- Ki (Cytochrome P450 2E1): Not Active
- IC50 [6]: Not Active

SMILES: CCCCOC(=O)c1ccc(N)cc1 [BUTAMBEN]
- IC50 [1]: Not Active
- IC50 [2]: Not Active
- IC50 (Glycine receptor): Not Active
- IC50 (D(1A) dopamine receptor; cho): Not Active
- IC50 [3]: Not Active
- IC50 [4]: Not Active
- Ki [4]: Not Active
- IC50 ([5]; platelet): Not Active
- IC50 (Cytochrome P450 2E1): Not Active
- Ki (Cytochrome P450 2E1): Not Active
- IC50 [6]: Not Active

SMILES: CC(C)NC[C@H](O)COc1cccc2[nH]ccc12
- IC50 [1]: Not Active
- IC50 [2]: Not Active
- IC50 (Glycine receptor): Not Active
- IC50 (D(1A) dopamine receptor; cho): Not Active
- IC50 [3]: Not Active
- IC50 [4]: Not Active
- Ki [4]: Not Active
- IC50 ([5]; platelet): Not Active
- IC50 [6]: Not Active

SMILES: O=P1(NCCCl)OCCCN1CCCl (stereo not drawn) [IFOSFAMIDE]
- IC50 [1]: Not Active
- IC50 [2]: Not Active
- IC50 (Glycine receptor): Not Active
- IC50 (D(1A) dopamine receptor; cho): Not Active
- IC50 [3]: Not Active
- IC50 [4]: Not Active
- Ki [4]: Not Active
- IC50 ([5]; platelet): Not Active
- IC50 [6]: Not Active

SMILES: Cc1ccccc1N1CCN(CCc2nnc3n2CCCC3)CC1 [DAPIPRAZOLE]
- IC50 [2]: Not Active
- IC50 (Glycine receptor): Not Active
- IC50 (D(1A) dopamine receptor; cho): Not Active
- IC50 [3]: Not Active
- IC50 (Cytochrome P450 1A2): Not Active
- Ki (Cytochrome P450 1A2): Not Active
- IC50 [4]: Not Active
- Ki [4]: Not Active
- IC50 ([5]; platelet): Not Active
- IC50 (Cytochrome P450 2E1): Not Active
- Ki (Cytochrome P450 2E1): Not Active
- IC50 [6]: Not Active

SMILES: O=C(O)c1cn(C2CC2)c2cc(N3CCNCC3)c(F)cc2c1=O [CIPROFLOXACIN]
- IC50 [1]: Not Active
- IC50 [2]: Not Active
- IC50 (Glycine receptor): Not Active
- IC50 (D(1A) dopamine receptor; cho): Not Active
- IC50 [3]: Not Active
- IC50 ([5]; platelet): Not Active
- IC50 (Cytochrome P450 2E1): Not Active
- Ki (Cytochrome P450 2E1): Not Active
- IC50 [6]: Not Active

SMILES: CC1(C)S[C@@H]2[C@H](NC(=O)[C@H](N)c3ccc(O)cc3)C(=O)N2[C@H]1C(=O)O [AMOXICILLIN]
- IC50 [1]: Not Active
- IC50 [2]: Not Active
- IC50 (Glycine receptor): Not Active
- IC50 (D(1A) dopamine receptor; cho): Not Active
- IC50 [3]: Not Active
- IC50 ([5]; platelet): Not Active
- IC50 (Cytochrome P450 2E1): Not Active
- Ki (Cytochrome P450 2E1): Not Active
- IC50 [6]: Not Active

SMILES: NCC(=O)O [GLYCINE]
- IC50 [1]: Not Active
- IC50 [2]: Not Active
- IC50 (Glycine receptor): Not Active
- IC50 (D(1A) dopamine receptor; cho): Not Active
- IC50 [3]: Not Active
- IC50 [4]: Not Active
- Ki [4]: Not Active
- IC50 ([5]; platelet): Not Active
- IC50 [6]: Not Active

SMILES: Cc1[nH]cnc1CN1CCc2c(c3ccccc3n2C)C1=O [ALOSETRON]
- IC50 [1]: Not Active
- IC50 [2]: Not Active
- IC50 (Glycine receptor): Not Active
- IC50 (D(1A) dopamine receptor; cho): Not Active
- IC50 [3]: Not Active
- IC50 [4]: Not Active
- Ki [4]: Not Active
- IC50 ([5]; platelet): Not Active
- IC50 (Cytochrome P450 2E1): Not Active
- Ki (Cytochrome P450 2E1): Not Active
- IC50 [6]: Not Active
